Reference: US20260028354A1, “TETRAHYDRONAPHTHALENE DERIVATIVES AS ESTROGEN RECEPTOR DEGRADERS” (REGENT OF THE UNIVERSITY OF MICHIGAN, priority 2022, published 2026)

Experiments:
CRBN/DDB1 = CRBN/DDB1 (Homo sapiens (Human), UniProt Q96SW2); format: binding; conditions: His tagged CRBN+DDB1, Cy5-labeled Thalidomide probe, one hour; read-out: CRBN HTRF IC50
Description: The binding potency was determined using HTRF assay technology (Perkin Elmer). Compounds were serially diluted in DMSO and […] volume was transferred to white 384-well plate.

ER in MCF-7 cells = ER in MCF-7 cells (Homo sapiens (Human), UniProt P03372); assay: In-cell Western (ICW) ER degradation assay in MCF-7 cells; format: cell-based; conditions: 16 hrs treatment; for Dmax: MCF7, MCF-7, maximal ER degradation, read-out: MCF7 Dmax; for DC50: MCF-7, ER degradation, read-out: MCF7 DC50; for MCF7 Dmax: MCF-7, maximal ER degradation
ER in T47D cells = ER in T47D cells (Homo sapiens (Human), UniProt P03372); assay: In-cell Western (ICW) ER degradation assay in T47D cells; format: cell-based; conditions: 16 hrs treatment; for DC50: ER degradation; for Dmax / T47D Dmax: maximal ER degradation; for Dmax: read-out: T47D Dmax
Sequence of ER in T47D cells (P03372 whole entry): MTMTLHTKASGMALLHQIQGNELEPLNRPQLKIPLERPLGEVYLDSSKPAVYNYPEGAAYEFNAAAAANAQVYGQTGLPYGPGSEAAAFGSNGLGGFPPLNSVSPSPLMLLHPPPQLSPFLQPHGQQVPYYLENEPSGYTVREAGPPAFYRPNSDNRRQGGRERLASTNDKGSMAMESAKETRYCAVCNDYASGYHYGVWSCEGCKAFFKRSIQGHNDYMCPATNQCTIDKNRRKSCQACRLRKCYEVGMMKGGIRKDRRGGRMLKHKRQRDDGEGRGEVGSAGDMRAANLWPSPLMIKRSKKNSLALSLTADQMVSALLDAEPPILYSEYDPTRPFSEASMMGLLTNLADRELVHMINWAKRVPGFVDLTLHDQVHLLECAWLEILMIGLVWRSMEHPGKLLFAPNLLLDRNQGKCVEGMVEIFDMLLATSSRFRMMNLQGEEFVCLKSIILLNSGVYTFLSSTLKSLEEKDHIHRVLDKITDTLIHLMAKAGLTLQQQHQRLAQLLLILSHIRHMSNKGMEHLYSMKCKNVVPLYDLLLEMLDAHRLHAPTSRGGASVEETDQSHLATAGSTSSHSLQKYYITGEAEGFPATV

Sequence of CRBN/DDB1 (Q96SW2 whole entry, species assumed): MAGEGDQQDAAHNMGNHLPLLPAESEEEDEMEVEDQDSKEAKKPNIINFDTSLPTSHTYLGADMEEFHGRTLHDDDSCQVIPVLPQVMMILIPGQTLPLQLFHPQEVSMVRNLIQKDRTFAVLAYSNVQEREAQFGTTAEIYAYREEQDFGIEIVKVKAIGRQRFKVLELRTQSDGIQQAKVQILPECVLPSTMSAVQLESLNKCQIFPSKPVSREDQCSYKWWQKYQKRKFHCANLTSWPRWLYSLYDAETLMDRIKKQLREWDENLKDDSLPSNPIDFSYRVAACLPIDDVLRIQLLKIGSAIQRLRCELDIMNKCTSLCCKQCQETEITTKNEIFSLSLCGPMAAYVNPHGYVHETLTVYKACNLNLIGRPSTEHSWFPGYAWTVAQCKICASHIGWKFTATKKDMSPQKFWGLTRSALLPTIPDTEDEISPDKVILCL
Sequence of CRBN/DDB1 (Q16531 whole entry partner, species assumed): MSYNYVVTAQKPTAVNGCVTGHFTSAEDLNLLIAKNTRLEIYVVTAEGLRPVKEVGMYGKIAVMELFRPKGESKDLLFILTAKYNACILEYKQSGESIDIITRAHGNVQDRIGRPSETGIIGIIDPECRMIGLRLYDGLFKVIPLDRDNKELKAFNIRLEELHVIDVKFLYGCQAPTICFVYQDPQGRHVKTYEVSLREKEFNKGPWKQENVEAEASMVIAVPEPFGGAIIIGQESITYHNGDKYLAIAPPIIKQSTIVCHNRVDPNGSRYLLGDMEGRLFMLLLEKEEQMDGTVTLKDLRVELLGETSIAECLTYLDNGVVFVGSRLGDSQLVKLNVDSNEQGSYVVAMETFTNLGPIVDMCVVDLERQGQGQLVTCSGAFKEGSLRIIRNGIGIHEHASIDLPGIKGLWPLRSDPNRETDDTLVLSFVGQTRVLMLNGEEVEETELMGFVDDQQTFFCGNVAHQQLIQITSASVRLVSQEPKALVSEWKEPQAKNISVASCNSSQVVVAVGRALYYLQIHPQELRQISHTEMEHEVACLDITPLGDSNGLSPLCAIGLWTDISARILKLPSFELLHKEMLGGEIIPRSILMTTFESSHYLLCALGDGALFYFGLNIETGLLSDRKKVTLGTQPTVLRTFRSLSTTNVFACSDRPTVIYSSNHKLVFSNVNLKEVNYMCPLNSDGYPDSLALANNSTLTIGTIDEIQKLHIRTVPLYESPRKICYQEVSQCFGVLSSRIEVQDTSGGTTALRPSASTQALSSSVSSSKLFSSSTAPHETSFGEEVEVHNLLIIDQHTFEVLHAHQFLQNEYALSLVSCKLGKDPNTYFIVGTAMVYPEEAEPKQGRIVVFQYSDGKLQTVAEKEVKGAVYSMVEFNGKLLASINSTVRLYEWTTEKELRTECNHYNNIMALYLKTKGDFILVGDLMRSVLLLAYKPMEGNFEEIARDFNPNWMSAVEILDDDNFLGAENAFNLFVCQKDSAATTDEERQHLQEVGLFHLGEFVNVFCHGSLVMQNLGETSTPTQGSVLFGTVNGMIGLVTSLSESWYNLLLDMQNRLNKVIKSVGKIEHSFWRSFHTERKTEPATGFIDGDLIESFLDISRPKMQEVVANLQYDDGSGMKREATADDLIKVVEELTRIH
Sequence of ER in MCF-7 cells (P03372 whole entry): as the sequence (P03372 whole entry) above

SMILES	IC50 (CRBN/DDB1) [nM]	Dmax (ER in MCF-7 cells) [%]	DC50 (ER in MCF-7 cells) [nM]	DC50 (ER in T47D cells) [nM]	Dmax (ER in T47D cells) [%]	MCF7 Dmax (ER in MCF-7 cells)	T47D Dmax (ER in T47D cells)
O=C1CC[C@H](Nc2ccc(C3CCN(C[C@H]4COC5(CCN(c6ccc([C@@H]7c8ccc(O)cc8CC[C@@H]7c7ccccc7)cc6)CC5)C4)CC3)cc2)C(=O)N1 (single isomer, unassigned) [Compound A27]	50 to 500	25 to 50	10 to 100	> 100	< 25	–	–
O=C1CC[C@H](Nc2ccc(C3CCN(C[C@@H]4COC5(CCN(c6ccc([C@@H]7c8ccc(O)cc8CC[C@@H]7c7ccccc7)cc6)CC5)C4)CC3)cc2)C(=O)N1 (single isomer, unassigned) [Compound A28]	50 to 500	25 to 50	10 to 100	10 to 100	25 to 50	–	–
O=C1CC[C@@H](Nc2ccc(C3CCN(C[C@@H]4COC5(CCN(c6ccc([C@@H]7c8ccc(O)cc8CC[C@@H]7c7ccccc7)cc6)CC5)C4)CC3)cc2)C(=O)N1 (single isomer, unassigned) [Compound A29]	50 to 500	25 to 50	10 to 100	10 to 100	25 to 50	–	–
O=C1CC[C@H](N2Cc3c(ccc4c3OC[C@H]3CN(CC5COC6(C5)CN(c5ccc([C@@H]7c8ccc(O)cc8CC[C@@H]7c7ccccc7)cc5)C6)CCN43)C2=O)C(=O)N1 (single isomer, unassigned) [Compound A40]	< 50	–	10 to 100	10 to 100	–	C (“C”: 25-50%)	C (“C”: 25-50%)
COc1cc(N2CC3(CC(CN4CCN5c6ccc7c(c6OC[C@H]5C4)CN([C@H]4CCC(=O)NC4=O)C7=O)CO3)C2)ccc1[C@H]1c2ccc(O)cc2CC[C@H]1c1ccccc1 (single isomer, unassigned) [Compound A47]	50 to 500	50 to 75	10 to 100	1 to 10	25 to 50	–	–
COc1cc(N2CC3(CC(CN4CCN5c6ccc7c(c6OC[C@H]5C4)CN([C@H]4CCC(=O)NC4=O)C7=O)CO3)C2)ccc1[C@@H]1c2ccc(O)cc2CC[C@@H]1c1ccccc1 (single isomer, unassigned) [Compound A48]	50 to 500	50 to 75	1 to 10	1 to 10	50 to 75	–	–
O=C1CC[C@H](Nc2ccc(C3CCN(C[C@H]4COC5(CCN(c6ccc([C@H]7c8ccc(O)cc8CC[C@H]7c7ccccc7)cc6)CC5)C4)CC3)cc2)C(=O)N1 (single isomer, unassigned) [Compound A49]	50 to 500	50 to 75	< 1	< 1	50 to 75	–	–
O=C1CC[C@H](Nc2ccc(C3CCN(C[C@@H]4COC5(CCN(c6ccc([C@H]7c8ccc(O)cc8CC[C@H]7c7ccccc7)cc6)CC5)C4)CC3)cc2)C(=O)N1 (single isomer, unassigned) [Compound A50]	50 to 500	50 to 75	< 1	< 1	50 to 75	–	–
O=C1CC[C@@H](Nc2ccc(C3CCN(C[C@H]4COC5(CCN(c6ccc([C@@H]7c8ccc(O)cc8CC[C@@H]7c7ccccc7)cc6)CC5)C4)CC3)cc2)C(=O)N1 (single isomer, unassigned) [Compound A51]	50 to 500	< 25	> 100	> 100	< 25	–	–
O=C1CC[C@H](Nc2ccc(C3CCN(C[C@@H]4COC5(CCN(c6ccc([C@H]7c8ccc(O)cc8CC[C@H]7c7ccccc7)cc6)CC5)C4)CC3)c(F)c2)C(=O)N1 (single isomer, unassigned) [Compound A59]	50 to 500	< 25	< 1	> 100	< 25	–	–
O=C1CC[C@@H](Nc2ccc(C3CCN(C[C@@H]4COC5(CCN(c6ccc([C@H]7c8ccc(O)cc8CC[C@H]7c7ccccc7)cc6)CC5)C4)CC3)c(F)c2)C(=O)N1 (single isomer, unassigned) [Compound A60]	50 to 500	25 to 50	> 100	> 100	< 25	–	–
O=C1CC[C@H](Nc2ccc(C3CCN(C[C@@H]4COC5(CCN(c6ccc([C@@H]7c8ccc(O)cc8CC[C@@H]7c7ccccc7)cc6)CC5)C4)CC3)c(F)c2)C(=O)N1 (single isomer, unassigned) [Compound A61]	50 to 500	< 25	> 100	> 100	< 25	–	–
O=C1CC[C@@H](Nc2ccc(C3CCN(C[C@@H]4COC5(CCN(c6ccc([C@@H]7c8ccc(O)cc8CC[C@@H]7c7ccccc7)cc6)CC5)C4)CC3)c(F)c2)C(=O)N1 (single isomer, unassigned) [Compound A62]	50 to 500	25 to 50	10 to 100	1 to 10	25 to 50	–	–
O=C1CC[C@@H](Nc2ccc(C3CCN(CC4CC5(CCN(c6ccc([C@@H]7c8ccc(O)cc8CC[C@@H]7c7ccccc7)cc6)CC5)C4)CC3)cc2)C(=O)N1 (single isomer, unassigned) [Compound A66]	50 to 500	50 to 75	1 to 10	1 to 10	50 to 75	–	–
COc1cc(N2CCC3(CC2)CC(CN2CCN4c5ccc(C(=O)N[C@H]6CCC(=O)NC6=O)nc5OC[C@@H]4C2)C3)ccc1[C@H]1c2ccc(O)cc2CC[C@H]1c1ccccc1 (single isomer, unassigned) [Compound A107]	> 5000	50 to 75	< 1	< 1	50 to 75	–	–
COc1cc(N2CCC3(CC2)CC(CN2CCC(c4ccc(N[C@H]5CCC(=O)NC5=O)c(F)c4)CC2)C3)ccc1[C@@H]1c2ccc(O)cc2CC[C@@H]1c1ccccc1 (single isomer, unassigned) [Compound A109]	500 to 5000	25 to 50	< 1	< 1	50 to 75	–	–
O=C1CC[C@H](N2Cc3c(ccc4c3OC[C@H]3CN(CC5CC6(CCN(c7ccc([C@H]8c9ccc(O)cc9CC[C@H]8c8ccccc8)cn7)CC6)C5)CCN43)C2=O)C(=O)N1 (single isomer, unassigned) [Compound A113]	50 to 500	25 to 50	10 to 100	10 to 100	25 to 50	–	–
O=C1CC[C@H](N2Cc3c(ccc4c3OC[C@H]3CN(CC5CCC6(CC5)CN(c5ncc([C@H]7c8ccc(O)cc8CC[C@H]7c7ccccc7)cn5)C6)CCN43)C2=O)C(=O)N1 (single isomer, unassigned) [Compound A155]	50 to 500	25 to 50	1 to 10	10 to 100	< 25	–	–
O=C1CCC(NC(=O)c2ccc3c(n2)OC[C@H]2CN(CC4CCN(c5ccc([C@H]6c7ccc(O)cc7CC[C@H]6c6ccccc6)cc5)CC4)CCN32)C(=O)N1 (stereo in doubt) [Compound A4, (4aR)-N-(2,6-dioxopiperidin-3-yl)-3-((1-(4-((1S,2R)-6-hydroxy-2-phenyl-1,2,3,4-tetrahydronaphthalen-1-yl)-phenyl)piperidin-4-yl)meth-yl)-1,2,3,4,4a,5-hexahydro-pyrazino[1,2-d]pyrido[2,3-b] [1,4]oxazine-8-carboxamide]	500 to 5000	50 to 75	1 to 10	< 1	50 to 75	–	–
COc1cc(N2CCC(CN3CCN4c5ccc6c(c5OC[C@@H]4C3)CN([C@@H]3CCC(=O)NC3=O)C6=O)CC2)ccc1[C@@H]1c2ccc(O)cc2CC[C@@H]1c1ccccc1 (stereo in doubt) [Compound A23, (R)-3-((S)-7-((1-(4-((1S,2S)-6-hydroxy-2-phenyl-1,2,3,4-tetrahydronaphthalen-1-yl)-3-methoxyphenyl)piperidin-4-yl)methyl)-1-oxo-1,3,5,5a,6,7,8,9-oCtahydro-2H-pyrazino [1′,2′:4,5][1,4]oxazino[2,3-e]isoindol-2-yl)piperidine-2,6-dione]	< 50	25 to 50	10 to 100	10 to 100	50 to 75	–	–
COc1cc(N2CCC3(CC2)CC(CN2CCC(c4ccc(NC5CCC(=O)NC5=O)cc4F)CC2)C3)ccc1[C@@H]1c2ccc(O)cc2CC[C@@H]1c1ccccc1 (stereo in doubt) [Compound A106, (R)-3-((3-fluoro-4-(1-((7-(4-((1S,2S)-6-hydroxy-2-phenyl-1,2,3,4-tetrahydronaphthalen-1-yl)-3-methoxyphenyl)-7-aza-spiro[3.5]nonan-2-yl)methyl)-piperidin-4-yl)phenyl)amino)-piperidine-2,6-dione]	50 to 500	–	< 1	< 1	–	B (“B”: >50 and <75%)	B (“B”: >50 and <75%)
COc1cc(N2CCC3(CC2)CC(CN2CCN4c5ccc(C(=O)N[C@H]6CCC(=O)NC6=O)nc5OCC4C2)C3)ccc1[C@@H]1c2ccc(O)cc2CC[C@@H]1c1ccccc1 (stereo in doubt) [Compound A108, (S)-N-((S)-2,6-dioxopiperidin-3-yl)-3-((7-(4-((1S,2S)-6-hydroxy-2-phenyl-1,2,3,4-tetra-hydronaphthalen-1-yl)-3-meth-oxyphenyl)-7-azaspiro[3.5]nonan-2-yl)methyl)-1,2,3,4,4a, 5-hexahydropyrazino[1,2-d] pyrido[2,3-b][1,4]oxazine-8-carboxamide]	500 to 5000	50 to 75	< 1	< 1	50 to 75	–	–
